Experimental data: patent US10125134B2 (Mirati Therapeutics, Inc., priority 2016, dated 2018)
Where two headings read alike, the source gives them in different places.

Assays:
KRas G12C = KRas G12C (Homo sapiens, UniProt P01116, C118S/C51S/C80L/G12C); test: KRas G12C Modification Assay (LCMS detection of covalent adduct); format: binding; conditions: normalized percent of control; tested at 5 μM concentration for 3 hours
Description: A 10 μL aliquot of each protein solution was then transferred to a 384 well microtiter plate. Initial compound stocks were generated at fifty times their desired final assay concentration in DMSO.
Exemplary compounds of Formula (I) were diluted 25-fold into K-Ras Assay Buffer to a final of two times their final concentration. A 10 μL aliquot of each diluted compound solution was then added to each of the protein solutions in the microtiter plate to initiate reaction. […] At each time point, the reactions were quenched with 20 μL of a 25 mM acetic acid solution. […] Once all reactions were quenched, the plates were heat sealed and the samples were injected into a LC/MS system for data acquisition.
Samples were injected in their liquid phase onto a C-3 reverse phase column to remove assay buffer and prepare the samples for mass spectrometer. The proteins were eluted from the column using an acetonitrile gradient and fed directly into the mass analyzer. Initial raw data analysis took place in Agilent MassHunter software immediately post data acquisition.
Raw data analysis of the intact protein was exclusively a deconvolution of the multiple charge states of each protein in solution using a maximum entropy deconvolution provided in Mass Hunter. To minimize complexity, only the data over limited mass ranges were considered for analysis, with a minimum of one Dalton mass step intervals. The heights of all masses identified during raw data analysis were exported to be further analyzed in Spotfire® data analysis software.
Final data analysis was a multistep process in the Spotfire® data analysis software package. Briefly, each protein mass was calculated as a percent of the total signal of that sample, that percentage was then normalized to the percentage of signal of the protein in the absence of reactive compounds. Those normalized signals were reported as normalized percent of control (POC). […] Key: “A”≤25% POC; “B”>25% POC−≤50% POC; “C”>50% POC and ND=not determined.

[1] = system: NCI-H358 cells (express KRas G12C), Phospho-ERK; test: Cellular inhibition of KRas G12C: Phospho-ERK in NCI-H358 cells; format: cell-based
Description: The cellular inhibition of KRAs G12C by exemplary compounds of the present invention was determined by measuring the amount of a downstream marker of KRas activity, phosphorylated ERK (“Phospho-ERK”).
Cells were plated in poly-D-Lysine coated 96-well plates at a concentration of 50,000 cells/well and allowed to attach for 8-12 hours. Diluted compounds were then added at a final concentration of 0.5% DMSO. After 3 hours, the medium was removed, 150 μL of 4% formaldehyde was added and the plates were incubated for 20 minutes. The plates were washed with PBS, and permeabilized using 150 μL of ice cold 100% methanol for 10 minutes. Non-specific antibody binding to the plates was blocked using 100 μL Licor Blocking Buffer (Li-Cor Biotechnology, Lincoln Nebr.) for 1 hour at room temperature. Positive control samples and samples lacking cells were parallel processed with test samples as standards.
The amount Phospho-ERK was determined using an antibody specific for the phosphorylated form of ERK and compared to the amount of GAPDH. […] The plates were incubated for 2 hours at room temperature. The plates were washed with PBS+0.05% Tween 20.
Secondary antibodies used to visualize primary antibodies were added as follows: Anti-rabbit-680 diluted 1:1000 and Anti-mouse-800 diluted 1:1000 in Licor Block+0.05% Tween 20 and incubated for 1 hour at room temperature. The plates were washed with PBS+0.05% Tween 20. A 100 μL aliquot of PBS was added to each well and the plates were read on a LICOR AERIUS plate reader.
The pERK(Thr202/Tyr204) signal was normalized with the GAPDH signal and percent of DMSO control values were calculated. IC50 values were generated using a 4 parameter fit of the dose response curve. Key: “A”≥0.0001−≤1 μM; and “B”>1 μM.

[2] = Homo sapiens, NCI-H358, 3 h, pERK(Thr202/Tyr204) normalized with GAPDH, NCI-H358 cells, 3 hours, read-out: IC50
[3] = Homo sapiens, pERK(Thr202/Tyr204) normalized with GAPDH, NCI-H358 cells, 3 hours, read-out: IC50
[4] = pERK(Thr202/Tyr204) normalized with GAPDH, NCI-H358 cells, 3 hours, read-out: IC50

Compound | POC (KRas G12C) | IC50 [1, 2] | further results
C=CC(=O)N1CCN(c2nc(OC[C@@H]3CCCC(=O)N3)nc3c2CCN(c2cc(O)cc4ccccc24)C3)CC1 (single isomer, unassigned) [Example 61] | C (“C”>50% POC) | > 1000 nM | 
C=CC(=O)N1CCN(c2nc(OC[C@H]3CCCC(=O)N3)nc3c2CCN(c2cc(O)cc4ccccc24)C3)CC1 (single isomer, unassigned) [Example 62] | C (“C”>50% POC) | > 1000 nM | 
C=CC(=O)N1CCN(c2nc(OC[C@H](O)CN3CCOCC3)nc3c2CCN(c2cc(O)cc4ccccc24)C3)CC1 (single isomer, unassigned) [Example 215] | C (“C”>50% POC) | > 1000 nM | 
C=CC(=O)N1CCN(c2nc(OC[C@@H](O)CN3CCOCC3)nc3c2CCN(c2cc(O)cc4ccccc24)C3)CC1 (single isomer, unassigned) [Example 216] | C (“C”>50% POC) | > 1000 nM | 
C=CC(=O)N1CCN(c2ncnc3c2CCN(c2cc(O)cc4ccccc24)C3)CC1 [Example 1, 1-(4-(7-(3-hydroxynaphthalen-1-yl)-5,6,7,8-tetrahydropyrido[3,4-d]pyrimidin-4-yl)piperazin-1-yl)prop-2-en-1-one] | B (“B”>25% POC−≤50% POC) | > 1000 nM | 
C=CC(=O)N1CCN(c2ncnc3c2CCN(c2cccc4ccc(O)cc24)C3)CC1 [Example 2, 1-(4-(7-(7-hydroxynaphthalen-1-yl)-5,6,7,8-tetrahydropyrido[3,4-d]pyrimidin-4-yl)piperazin-1-yl)prop-2-en-1-one] | A (“A”≤25% POC) | > 1000 nM | 
C=CC(=O)N1CCN(c2ncnc3c2CCN(c2cccc4ccccc24)C3)CC1 [Example 3, 1-(4-(7-(naphthalen-1-yl)-5,6,7,8-tetrahydropyrido[3,4-d]pyrimidin-4-yl)piperazin-1-yl)prop-2-en-1-one] | A (“A”≤25% POC) | > 1000 nM | 
C=CC(=O)N1CCN(c2ncnc3c2CCN(c2c(O)cccc2F)C3)CC1 [Example 4, 1-(4-(7-(2-fluoro-6-hydroxyphenyl)-5,6,7,8-tetrahydropyrido[3,4-d]pyrimidin-4-yl)piperazin-1-yl)prop-2-en-1-one] | A (“A”≤25% POC) | > 1000 nM | 
C=CC(=O)N1CCN(c2nc(OC[C@@H]3CCCN3C)nc3c2CCN(c2cc(O)cc4ccccc24)C3)CC1 [Example 127, (S)-1-(4-(7-(3-hydroxynaphthalen-1-yl)-2-((1-methylpyrrolidin-2-yl)methoxy)-5,6,7,8-tetrahydropyrido[3,4-d]pyrimidin-4-yl)piperazin-1-yl)prop-2-en-1-one] |  |  | IC50 ([1]; Homo sapiens, NCI-H358, 3 h): 0.1 to 1000 nM
C=CC(=O)N1CCN(c2nc(OC[C@H]3CCCN3C)nc3c2CCN(c2cc(O)cc4ccccc24)C3)CC1 [Example 187, (R)-1-(4-(7-(3-hydroxynaphthalen-1-yl)-2-((1-methylpyrrolidin-2-yl)methoxy)-5,6,7,8-tetrahydropyrido[3,4-d]pyrimidin-4-yl)piperazin-1-yl)prop-2-en-1-one] |  |  | IC50 ([1]; Homo sapiens, NCI-H358, 3 h): 0.1 to 1000 nM
C=CC(=O)N1CCN(c2nc(OC[C@@H]3CCCN3C)nc3c2CCN(c2cccc4ccccc24)C3)CC1 [Example 200, (S)-1-(4-(2-((1-methylpyrrolidin-2-yl)methoxy)-7-(naphthalen-1-yl)-5,6,7,8-tetrahydropyrido[3,4-d]pyrimidin-4-yl)piperazin-1-yl)prop-2-en-1-one] |  |  | IC50 ([1]; Homo sapiens, NCI-H358, 3 h): > 1000 nM
CC#CC(=O)N1CCN(c2nc(OC[C@@H]3CCCN3C)nc3c2CCN(c2cccc4ccccc24)C3)CC1CC#N (stereo partly drawn) [Example 242, 2-(1-(but-2-ynoyl)-4-(2-(((S)-1-methylpyrrolidin-2-yl)methoxy)-7-(naphthalen-1-yl)-5,6,7,8-tetrahydropyrido[3,4-d]pyrimidin-4-yl)piperazin-2-yl)acetonitrile] |  |  | IC50 [1, 3]: 0.1 to 1000 nM
C=CC(=O)N1CCN(c2nc(OC[C@]3(C)CCCN3C)nc3c2CCN(c2cccc4ccccc24)C3)CC1CC#N (stereo partly drawn) [Example 251, 2-(1-acryloyl-4-(2-(((S)-1,2-dimethylpyrrolidin-2-yl)methoxy)-7-(naphthalen-1-yl)-5,6,7,8-tetrahydropyrido[3,4-d]pyrimidin-4-yl)piperazin-2-yl)acetonitrile] |  |  | IC50 ([1]; Homo sapiens, NCI-H358, 3 h): 0.1 to 1000 nM
C=CC(=O)N1CCN(c2nc(OC[C@@H]3CCCN3C)nc3c2CCN(c2cccc4cccc(Cl)c24)C3)CC1CC#N (stereo partly drawn) [Example 310, 2-(1-acryloyl-4-(7-(8-chloronaphthalen-1-yl)-2-(((S)-1-methylpyrrolidin-2-yl)methoxy)-5,6,7,8-tetrahydropyrido[3,4-d]pyrimidin-4-yl)piperazin-2-yl)acetonitrile] |  |  | IC50 ([1]; Homo sapiens, NCI-H358, 3 h): 0.1 to 1000 nM
C=CC(=O)N1CCN(c2nc(OC[C@@H]3CCCN3C)nc3c2CCN(c2cccc4cccc(Cl)c24)C3)C[C@@H]1CC#N [Example 331, 2-[(2S)-4-[7-(8-chloro-1-naphthyl)-2-[[(2S)-1-methylpyrrolidin-2-yl]methoxy]-6,8-dihydro-5H-pyrido[3,4-d]pyrimidin-4-yl]-1-prop-2-enoyl-piperazin-2-yl]acetonitrile] |  |  | IC50 ([1]; Homo sapiens, NCI-H358, 3 h): 0.1 to 1000 nM
C=CC(=O)N1CCN(c2nc(OC[C@H]3CCCN3C)nc3c2CCN(c2cccc(F)c2C(F)(F)F)C3)C[C@@H]1CC#N [Example 382, 2-((S)-1-acryloyl-4-(7-(3-fluoro-2-(trifluoromethyl)phenyl)-2-(((R)-1-methylpyrrolidin-2-yl)methoxy)-5,6,7,8-tetrahydropyrido[3,4-d]pyrimidin-4-yl)piperazin-2-yl)acetonitrile] |  |  | IC50 [1, 4]: 0.1 to 1000 nM
C=CC(=O)N1CCN(c2nc(OC[C@@H]3CCCN3C)nc3c2CCN(c2cccc(C)c2C(F)(F)F)C3)C[C@@H]1CC#N [Example 392, 2-((S)-1-acryloyl-4-(7-(3-methyl-2-(trifluoromethyl)phenyl)-2-(((S)-1-methylpyrrolidin-2-yl)methoxy)-5,6,7,8-tetrahydropyrido[3,4-d]pyrimidin-4-yl)piperazin-2-yl)acetonitrile] |  |  | IC50 [1, 4]: 0.1 to 1000 nM
C=CC(=O)N1CCN(c2nc(OC[C@H]3CN(C)CCO3)nc3c2CCN(c2cccc4ccccc24)C3)CC1CC#N (stereo partly drawn) [Example 441, 2-(1-Acryloyl-4-(2-(((R)-4-methylmorpholin-2-yl)methoxy)-7-(naphthalen-1-yl)-5,6,7,8-tetrahydropyrido[3,4-d]pyrimidin-4-yl)piperazin-2-yl)acetonitrile] | C (“C”>50% POC) |  | 
C=CC(=O)N1CCN(c2nc(OC[C@H]3CN(C)[C@H](C)CO3)nc3c2CCN(c2cccc4ccccc24)C3)C[C@@H]1CC#N [Example 449, 2-((S)-1-Acryloyl-4-(2-(((2R,5R)-4,5-dimethylmorpholin-2-yl)methoxy)-7-(naphthalen-1-yl)-5,6,7,8-tetrahydropyrido[3,4-d]pyrimidin-4-yl)piperazin-2-yl)acetonitrile] | C (“C”>50% POC) |  | 
C=CC(=O)N1CCN(c2nc(OC[C@@H]3CCCN3C)nc3c2CCN(c2cccc4cccc(OC)c24)C3)C[C@@H]1CC#N [Example 463, 2-((S)-1-acryloyl-4-(7-(8-methoxynaphthalen-1-yl)-2-(((S)-1-methylpyrrolidin-2-yl)methoxy)-5,6,7,8-tetrahydropyrido[3,4-d]pyrimidin-4-yl)piperazin-2-yl)acetonitrile] |  |  | IC50 [1, 3]: > 1000 nM
C=CC(=O)N1CCN(c2nc(OC[C@@H]3CCCN3C)nc3c2CCN(c2cccc4cccc(C#N)c24)C3)C[C@@H]1CC#N [Example 464, 8-(4-((S)-4-acryloyl-3-(cyanomethyl)piperazin-1-yl)-2-(((S)-1-methylpyrrolidin-2-yl)methoxy)-5,8-dihydropyrido[3,4-d]pyrimidin-7(6H)-yl)-1-naphthonitrile] |  |  | IC50 [1, 3]: 0.1 to 1000 nM
